Experimental data from patent US7238775B2, “Receptor(SSTR4)-selective somatostatin analogs” (The Salk Institute for Biological Studies, priority 2002, dated 2007).
Several values for one entry are separate records, joined by “and”; a condition that tells them apart may be missing. Equal entries are not always repeated. Numbered stars: 1 amine (or outer) side, 2 acyl side, 3 side chain; on linkers, the order of the positions; unused ones are H or OH. Bridge positions count the residues as written; N and C are the ends. Square brackets hold non-standard residues; d marks the D form. Ends that are not written are not given here. Peptide text beside a SMILES is read from it. * marks the point of attachment. DOTA = O=C(O)CN1CCN(CC(=O)O)CCN(CC(=O)*)CCN(CC(=O)O)CC1; d2Nal(3S-Me) = C[C@@H](c1ccc2ccccc2c1)[C@@H](N)C(=O)O; X1 = C[C@H](c1ccc2ccccc2c1)[C@H](N[*:1])C(=O)[*:2]; Phe(4-NH2) = Nc1ccc(C[C@H](N)C(=O)O)cc1; 2Nal = N[C@@H](Cc1ccc2ccccc2c1)C(=O)O; X2 = NC(=O)N[C@@H](CS[*:2])C(=O)[*:1]; GABA = NCCCC(=O)O

Key:
Assay in all cases: Displacement of 125I-[Leu8,D-Trp22,Tyr25]SRIF-28 from cloned receptor, membrane pellet autoradiography
Format in all cases: binding
hSSTR4 = biological target: T1, hSSTR4 (Homo sapiens, UniProt P31391); details: for IC50: inhibition of 125I-SRIF-28 radioligand binding, cloned human receptor
T1 construct: expressed in transfected cells; host or cells: CHO-K1 cells and CCL39 cells
T1 sequence (P31391 whole entry): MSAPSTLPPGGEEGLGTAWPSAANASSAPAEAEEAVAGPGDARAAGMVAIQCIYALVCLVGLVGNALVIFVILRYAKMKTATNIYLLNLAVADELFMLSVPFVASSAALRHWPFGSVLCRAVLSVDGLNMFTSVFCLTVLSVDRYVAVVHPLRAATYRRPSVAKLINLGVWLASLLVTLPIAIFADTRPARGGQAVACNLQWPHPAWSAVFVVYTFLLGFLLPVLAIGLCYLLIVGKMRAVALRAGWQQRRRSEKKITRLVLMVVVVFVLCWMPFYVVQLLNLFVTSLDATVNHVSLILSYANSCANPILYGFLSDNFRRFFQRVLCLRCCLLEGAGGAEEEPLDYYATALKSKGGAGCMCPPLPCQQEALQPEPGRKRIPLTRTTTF
Protocol: (§1) In vitro Bioassay: The effects of the various somatostatin analogs are tested in vitro for their ability to bind to isolated cloned receptors expressed on CHO-K1 cells and CCL39 cells. CHO-K1 cells are grown in Ham's F-12 medium, and CCL39 cells are grown in Dulbecco's modified Eagle's medium/Ham's F-12(1:1) mix, supplemented with 10% fetal bovine serum, 100 U/ml penicillin and 100 μg/ml streptomycin, in humidified air containing 5% CO2 at 37° C.
(§2) Cells are washed twice with and scraped into ice-cold 0.05 M Tris-HCl (pH 7.4), collected by centrifugation, and homogenized using a rotor/stator/system in the same buffer. After centrifugation at 120 g for 5 min at 4° C., the supernatant is collected and centrifuged again at 48,000 g for 30 min at 4° C. The resulting pellet is resuspended in ice-cold Tris buffer, transferred into a microfuge tube, and centrifuged at 20,000 g for 15 min at 4° C. After withdrawal of the supernatant, the membrane pellet is stored at −80° C.
(§3) Receptor autoradiography is performed on 20 μm thick cryostat sections of the membrane pellets, mounted on microscope slides, and then stored at −20° C. […] Increasing concentrations of the unlabeled peptide are used ranging from 0.1-1000 nM. […] IC50 values are calculated after quantification of the data using a computer-assisted image processing system as known in this art.
(§4) The numbers in parentheses indicate the number of times the particular binding test was carried out.

hSSTR1 = biological target: T2, hSSTR1 (Homo sapiens, UniProt P30872); details: inhibition of 125I-SRIF-28 radioligand binding, cloned human receptor
T2 construct: expressed in transfected cells; host or cells: CHO-K1 cells and CCL39 cells
T2 sequence (P30872 whole entry): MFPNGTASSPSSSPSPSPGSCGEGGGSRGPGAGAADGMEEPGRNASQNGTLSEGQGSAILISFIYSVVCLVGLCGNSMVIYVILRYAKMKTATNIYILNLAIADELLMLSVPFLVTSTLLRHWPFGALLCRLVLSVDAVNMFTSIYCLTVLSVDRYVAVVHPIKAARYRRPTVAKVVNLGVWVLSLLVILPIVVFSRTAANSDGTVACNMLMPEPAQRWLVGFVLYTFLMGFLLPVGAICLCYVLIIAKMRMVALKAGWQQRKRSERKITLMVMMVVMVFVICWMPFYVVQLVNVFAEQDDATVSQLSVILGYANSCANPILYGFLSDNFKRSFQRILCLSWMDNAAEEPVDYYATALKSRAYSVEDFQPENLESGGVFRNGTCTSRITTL
Protocol: as §1, §2
Receptor autoradiography is performed on 20 μm thick cryostat sections of the membrane pellets, mounted on microscope slides, and then stored at −20° C. […] […] […] IC50 values are calculated after quantification of the data using a computer-assisted image processing system as known in this art.
as §4

hSSTR2 = biological target: T3, hSSTR2 (Homo sapiens, UniProt P30874); details: inhibition of 125I-SRIF-28 radioligand binding, cloned human receptor
T3 construct: expressed in transfected cells; host or cells: CHO-K1 cells and CCL39 cells
T3 sequence (P30874 whole entry): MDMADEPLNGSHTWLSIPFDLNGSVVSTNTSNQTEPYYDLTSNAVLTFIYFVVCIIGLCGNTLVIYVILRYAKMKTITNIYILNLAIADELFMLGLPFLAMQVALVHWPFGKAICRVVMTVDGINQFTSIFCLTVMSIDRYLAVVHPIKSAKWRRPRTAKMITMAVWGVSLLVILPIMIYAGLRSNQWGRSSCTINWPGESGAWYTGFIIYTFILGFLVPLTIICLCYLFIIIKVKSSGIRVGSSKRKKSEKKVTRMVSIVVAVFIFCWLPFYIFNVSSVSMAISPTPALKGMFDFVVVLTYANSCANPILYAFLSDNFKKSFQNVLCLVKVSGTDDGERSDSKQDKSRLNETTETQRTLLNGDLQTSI
Protocol: as §1, §2, §3, §4

| Molecule | selectivity in binding to SSTR4 compared with the other 4 receptors (in words) (hSSTR4) | IC50 (hSSTR4) | other results |
| --- | --- | --- | --- |
| C[C@@H]1NC(=O)[C@H](Cc2ccccc2)NC(=O)[C@@H](N)CSSC[C@@H](C(=O)O)NC(=O)[C@H](Cc2ccccc2)NC(=O)[C@H]([C@@H](C)O)NC(=O)[C@H](CCCCN)NC(=O)[C@@H](Cc2c[nH]c3ccccc23)NC1=O [Peptide No. 11, (cyclo)H-Cys-Phe-Ala-D-Trp-Lys-Thr-Phe-Cys-OH] (H-CFA[dW]KTFC-OH; disulfide 1-8) | selectively binds to SSTR4 | 0.98 nM |  |
| C[C@H](c1ccc2ccccc2c1)[C@@H]1NC(=O)[C@H](Cc2ccc(O)cc2)NC(=O)[C@H](Cc2ccccc2)NC(=O)[C@H](N)CSSC[C@@H](C(=O)O)NC(=O)[C@H](Cc2ccccc2)NC(=O)[C@H]([C@@H](C)O)NC(=O)[C@H](CCCCN)NC1=O [Peptide No. 16A, (cyclo)H-D-Cys-Phe-Tyr-threo-(2S,3R)C^βMe-2Nal-Lys-Thr-Phe-Cys-OH] (H-[dC]FY[X1]KTFC-OH; disulfide 1-8) |  | 3.5 ± 0.5 nM | IC50 (hSSTR1): > 10000 nM; selectivity for SSTR4 over the closest other receptor (hSSTR4): more than 100 times |
| C[C@@H]1NC(=O)[C@H](Cc2ccccc2)NC(=O)[C@@H](NC(=O)[C@@H](N)Cc2ccc(O)c(I)c2)CSSC[C@@H](C(=O)O)NC(=O)[C@H](Cc2ccccc2)NC(=O)[C@H]([C@@H](C)O)NC(=O)[C@H](CCCCN)NC(=O)[C@H](Cc2c[nH]c3ccccc23)NC1=O [Peptide No. 13A] |  | ~3.5 nM |  |
| C[C@@H]1NC(=O)[C@H](Cc2ccccc2)NC(=O)[C@@H](NC(=O)[C@@H](N)Cc2ccc(O)cc2)CSSC[C@@H](C(=O)O)NC(=O)[C@H](Cc2ccccc2)NC(=O)[C@H]([C@@H](C)O)NC(=O)[C@H](CCCCN)NC(=O)[C@@H](Cc2c[nH]c3ccccc23)NC1=O [Peptide No. 14, (cyclo)H-Tyr-Cys-Phe-Ala-D-Trp-Lys-Thr-Phe-Cys-OH] |  | 1.1 ± 0.2 nM |  |
| C[C@@H](O)[C@@H]1NC(=O)[C@H](CCCCN)NC(=O)[C@H](Cc2c[nH]c3ccccc23)NC(=O)[C@H](Cc2ccc(N)cc2)NC(=O)[C@H](Cc2ccccc2)NC(=O)[C@@H](N)CSSC[C@@H](C(=O)O)NC(=O)[C@H](Cc2ccc(O)cc2)NC1=O [Peptide No. 9, (cyclo)H-Cys-Phe-4Aph-Trp-Lys-Thr-Tyr-Cys-OH] |  | 1.1 ± 0.2 nM |  |
| (cyclo)Cys-Phe-Val-Trp-Lys-Thr-Val-Cys-OH (CFVWKTVC-OH; disulfide 1-8 (inferred)) [Peptide No. 12F] | selective in binding to hSSTR4 |  |  |
| C[C@@H](O)[C@@H]1NC(=O)[C@H](CCCCN)NC(=O)[C@@H]([C@@H](C)c2ccc3ccccc3c2)NC(=O)[C@H](Cc2ccc(O)cc2)NC(=O)[C@H](Cc2ccccc2)NC(=O)[C@@H](N)CSSC[C@@H](C(=O)O)NC(=O)[C@H](Cc2ccccc2)NC1=O [Peptide No. 17, (cyclo)H-Cys-Phe-Tyr-threo-(2R,3S)C^βMe-2Nal-Lys-Thr-Phe-Cys-OH] (H-CFY[d2Nal(3S-Me)]KTFC-OH; disulfide 1-8) | show selectivity for binding to SSTR4 |  |  |
| C[C@@H](O)[C@@H]1NC(=O)[C@H](CCCCN)NC(=O)[C@@H](Cc2c[nH]c3ccccc23)NC(=O)[C@H](Cc2ccc(N)cc2)NC(=O)[C@H](Cc2ccccc2)NC(=O)[C@@H](NC(N)=O)CSSC[C@@H](C(=O)O)NC(=O)[C@H](Cc2ccccc2)NC1=O [Peptide No. 4, (cyclo)Cbm-Cys-Phe-4Aph-D-Trp-Lys-Thr-Phe-Cys-OH] (F[Phe(4-NH2)][dW]KTFC-OH; linker N-7 via X2) |  | 1.1 ± 0.2 nM |  |
| C[C@H](c1ccc2ccccc2c1)[C@@H]1NC(=O)[C@H](Cc2ccc(O)cc2)NC(=O)[C@H](Cc2ccccc2)NC(=O)[C@@H](N)CSSC[C@@H](C(=O)O)NC(=O)[C@H](Cc2ccccc2)NC(=O)[C@H]([C@@H](C)O)NC(=O)[C@H](CCCCN)NC1=O [Peptide No. 17A, (cyclo)H-Cys-Phe-Tyr-threo-(2S,3R)C^βMe-2Nal-Lys-Thr-Phe-Cys-OH] (H-CFY[X1]KTFC-OH; disulfide 1-8) | show selectivity for binding to SSTR4 |  | IC50 (hSSTR1): > 1000 nM; selectivity for SSTR4 over the closest other receptor (hSSTR4): ~100 times |
| C[C@@H](O)[C@@H]1NC(=O)[C@H](CCCCN)NC(=O)[C@H](Cc2c[nH]c3ccccc23)NC(=O)[C@H](Cc2ccc(CN)cc2)NC(=O)[C@H](Cc2ccccc2)NC(=O)[C@@H](NC(=O)[C@H](Cc2ccc(O)cc2)NC(N)=O)CSSC[C@@H](C(=O)O)NC(=O)[C@H](Cc2ccccc2)NC1=O [Peptide No. 15A, (cyclo)Cbm-Tyr-Cys-Phe-Amp-Trp-Lys-Thr-Phe-Cys-OH] |  |  | IC50 (hSSTR1): > 1000 nM |
| C[C@@H](O)[C@@H]1NC(=O)[C@H](CCCCN)NC(=O)[C@H](Cc2c[nH]c3ccccc23)NC(=O)[C@H](Cc2ccc(CN)cc2)NC(=O)[C@H](Cc2ccccc2)NC(=O)[C@@H](NC(=O)[C@@H](N)Cc2ccc(O)cc2)CSSC[C@@H](C(=O)O)NC(=O)[C@H](Cc2ccccc2)NC1=O [Peptide No. 15, (cyclo)H-Tyr-Cys-Phe-4 Amp-Trp-Lys-Thr-Phe-Cys-OH] |  |  | IC50 (hSSTR1): > 1000 nM |
| C[C@@H](O)[C@@H]1NC(=O)[C@H](CCCCN)NC(=O)[C@H](Cc2ccc3ccccc3c2)NC(=O)[C@H](Cc2ccc(N)cc2)NC(=O)[C@H](Cc2ccccc2)NC(=O)[C@@H](N)CSSC[C@@H](C(=O)O)NC(=O)[C@H](Cc2ccccc2)NC1=O [Peptide No. 5, (cyclo)H-Cys-Phe-4Aph-2Nal-Lys-Thr-Phe-Cys-OH] (H-CF[Phe(4-NH2)][2Nal]KTFC-OH; disulfide 1-8) |  |  | IC50 (hSSTR2): > 1000 nM |
| C[C@@H]1NC(=O)[C@H](Cc2ccccc2)NC(=O)[C@@H](N)CSSC[C@@H](C(=O)O)NC(=O)[C@H](C)NC(=O)[C@H]([C@@H](C)O)NC(=O)[C@H](CCCCN)NC(=O)[C@H](Cc2c[nH]c3ccccc23)NC1=O [Peptide No. 12A] (H-CFAWKTAC-OH; disulfide 1-8) |  | 3.5 ± 0.8 nM |  |
| C[C@@H]1NC(=O)[C@H](Cc2ccccc2)NC(=O)[C@@H](NC(=O)CN2CCN(CC(=O)O)CCN(CC(=O)O)CCN(CC(=O)O)CC2)CSSC[C@@H](C(=O)O)NC(=O)[C@H](Cc2ccccc2)NC(=O)[C@H]([C@@H](C)O)NC(=O)[C@H](CCCCN)NC(=O)[C@H](Cc2c[nH]c3ccccc23)NC1=O [Peptide 12C] ({DOTA}-CFAWKTFC-OH; disulfide 1-8) | continues to show selectivity in binding to hSSTR4 |  |  |
| C[C@@H]1NC(=O)[C@H](Cc2ccccc2)NC(=O)[C@@H](NC(=O)CCCNC(=O)CN2CCN(CC(=O)O)CCN(CC(=O)O)CCN(CC(=O)O)CC2)CSSC[C@@H](C(=O)O)NC(=O)[C@H](Cc2ccccc2)NC(=O)[C@H]([C@@H](C)O)NC(=O)[C@H](CCCCN)NC(=O)[C@H](Cc2c[nH]c3ccccc23)NC1=O [Peptide 12D] ({DOTA-GABA}-CFAWKTFC-OH; disulfide 1-8) | continues to show selectivity in binding to hSSTR4 |  |  |
| C[C@@H](O)[C@@H]1NC(=O)[C@H](CCCCN)NC(=O)[C@H](Cc2c[nH]c3ccccc23)NC(=O)[C@H](Cc2ccc(N)cc2)NC(=O)[C@H](Cc2ccccc2)NC(=O)[C@@H](NC(=O)[C@H](Cc2ccc(O)cc2)NC(N)=O)CSSC[C@@H](C(=O)O)NC(=O)[C@H](Cc2ccccc2)NC1=O [Peptide No. 8, (cyclo)Cbm-Tyr-Cys-Phe-4Aph-Trp-Lys-Thr-Phe-Cys-OH] |  | ~1.2 nM and 1.2 nM |  |
| C[C@@H](O)[C@@H]1NC(=O)[C@H](CCCCN)NC(=O)[C@@H](Cc2c[nH]c3ccccc23)NC(=O)[C@H](Cc2ccc(N)cc2)NC(=O)[C@H](Cc2ccccc2)NC(=O)[C@@H](NC(=O)[C@@H](N)Cc2ccc(O)cc2)CSSC[C@@H](C(=O)O)NC(=O)[C@H](Cc2ccccc2)NC1=O [Peptide No. 7, (cyclo)H-Tyr-Cys-Phe-4Aph-D-Trp-Lys-Thr-Phe-Cys-OH] |  | 1.2 ± 0.3 nM |  |

Further lines, with some results ahead:

| selectivity in binding to SSTR4 compared with the other 4 receptors (in words) (hSSTR4) | IC50 (hSSTR4) | Molecule | other results |
| --- | --- | --- | --- |
| selective in binding to hSSTR4 |  | (cyclo)H-Cys-Phe-Ala-Trp-Lys-Thr-Val-Cys-OH (H-CFAWKTVC-OH; disulfide 1-8 (inferred)) [Peptide 12E] |  |
| selective in binding to hSSTR4 |  | (cyclo)H-Cys-Phe-Val-D-Trp-Lys-Thr-Phe-Cys-OH (H-CFV[dW]KTFC-OH; disulfide 1-8; SMILES CC(C)[C@@H]1NC(=O)[C@H](Cc2ccccc2)NC(=O)[C@@H](N)CSSC[C@@H](C(=O)O)NC(=O)[C@H](Cc2ccccc2)NC(=O)[C@H]([C@@H](C)O)NC(=O)[C@H](CCCCN)NC(=O)[C@@H](Cc2c[nH]c3ccccc23)NC1=O) [Peptide 11A] |  |
| selective in binding to hSSTR4 |  | (cyclo)H-Cys-Phe-Ala-Trp-Lys-Thr-Gly-Cys-OH (H-CFAWKTGC-OH; disulfide 1-8 (inferred)) [Peptide 12G] |  |
